Reference: patent US5567692A, “9-[(substituted glycyl) amido)]-6-demethyl-6-deoxytetracyclines” (priority 1995, dated 1996)
Converted amounts (≈) assume the structure as drawn. Structures can show the parent of a compound that is named as a salt. Where two headings read alike, the source gives them in different places.

Assays:
S. aureus NEMC 8769 = experiment: MIC, agar dilution; type: cell-based
[1] = system: X. maltophilia NEMC 87210; experiment: MIC, agar dilution; type: cell-based
S. aureus IVES 2943 = experiment: MIC, agar dilution; type: cell-based
[2] = system: E. coli UBMS 89-2 Tet sens.; experiment: MIC, agar dilution; type: cell-based
[3] = system: S. hemolyticus AVHAH 88-3; experiment: MIC, agar dilution; type: cell-based
S. aureus UBMS 88-4 = experiment: MIC, agar dilution; type: cell-based
E. coli J3272 Tet C = experiment: microbe, parasite or virus in culture; type: cell-based
S. aureus ROSE (MP) = experiment: MIC, agar dilution; type: cell-based
E. coli UBMS 90-5 = experiment: microbe, parasite or virus in culture; type: cell-based; conditions: E. coli UBMS 90-5
S. aureus SMITH (MP) = experiment: MIC, agar dilution; type: cell-based
[4] = system: S. aureus UBMS 88-7 Tet K; experiment: microbe, parasite or virus in culture; type: cell-based
E. coli ATCC 25922 = experiment: MIC, agar dilution; type: cell-based
[5] = system: S. aureus UBMS 88-5 Tet M; experiment: microbe, parasite or virus in culture; type: cell-based; conditions: Staphylococcus aureus, UBMS885TETM, 18 h
[6] = system: E. coli MC 4100 TNIOC Tet B; experiment: microbe, parasite or virus in culture; type: cell-based
[7] = system: S. aureus UBMS 90-2 Tet M; experiment: microbe, parasite or virus in culture; type: cell-based; conditions: Staphylococcus aureus, UBMS902TETM, 18 h
[8] = system: Ps. aeruginosa ATCC 27853; experiment: MIC, agar dilution; type: cell-based; conditions: Ps. aeruginosa ATCC 27853
Enterococcus 12201 = experiment: MIC, agar dilution; type: cell-based
E. coli UBMS 89-1 Tet M = experiment: microbe, parasite or virus in culture; type: cell-based
E. coli PRP1 Tet A = experiment: microbe, parasite or virus in culture; type: cell-based
E. coli UBMS 88-1 Tet B = experiment: microbe, parasite or virus in culture; type: cell-based
E. coli UBMS 90-4 Tet M = experiment: microbe, parasite or virus in culture; type: cell-based; conditions: Escherichia coli, UBMS904TETM, 18 h
E. coli #311 (MP) = experiment: MIC, agar dilution; type: cell-based; conditions: Escherichia coli, 18 h
S. aureus IVES 1983 = experiment: MIC, agar dilution; type: cell-based
E. coli J2175 = experiment: MIC, agar dilution; type: cell-based
S. marcescens FPOR 8733 = experiment: MIC, agar dilution; type: cell-based
[9] = system: S. aureus UBMS 90-1 Tet M; experiment: microbe, parasite or virus in culture; type: cell-based; conditions: Staphylococcus aureus, UBMS901TETM, 18 h
E. coli J3272 Tet D = experiment: microbe, parasite or virus in culture; type: cell-based; conditions: monohydrochloride
S. aureus UBMS 90-3 = experiment: MIC, agar dilution; type: cell-based; conditions: S. aureus UBMS 90-3
E. faecalis ATCC 29212 = experiment: MIC, agar dilution; type: cell-based; conditions: E. faecalis ATCC 29212
[10] = system: Staphylococcus aureus strain Smith (tetracycline sensitive); experiment: Acute lethal infection in mice, S. aureus Smith; type: in vivo; conditions: for ED50: mice, S. aureus Smith (Sens), 7 day survival; for in vivo activity (in words): tested intravenously against the minocycline sensitive organism S. aureus Smith
E. coli BAJ9003 IMP MUT = experiment: microbe, parasite or virus in culture; type: cell-based; conditions: E. coli BAJ9003 IMP MUT
S. aureus ATCC 29213 = experiment: MIC, agar dilution; type: cell-based; conditions: Staphylococcus aureus, ATCC29213, 18 h, S. aureus ATCC 29213; read-out: MIC
[11] = Staphylococcus aureus, NEMC8769, 18 h, read-out: MIC
[12] = Escherichia coli, J3272TETC, 18 h
[13] = Staphylococcus aureus, 18 h, read-out: MIC
[14] = Escherichia coli, UBMS905, 18 h, read-out: MIC
[15] = Staphylococcus aureus, UBMS887TETK, 18 h
[16] = Pseudomonas aeruginosa, ATCC27853, 18 h, read-out: MIC
[17] = Escherichia coli, PRP1TETA, 18 h
[18] = Escherichia coli, UBMS881TETB, 18 h
[19] = Staphylococcus aureus, IVES1983, 18 h
[20] = Escherichia coli, 18 h, read-out: MIC
[21] = Serratia marcescens, FPOR8733, 18 h, read-out: MIC

CC(C)CNCC(=O)Nc1ccc2c(c1O)C(=O)C1=C(O)[C@]3(O)C(=O)C(C(N)=O)=C(O)[C@@H](N(C)C)C3CC1C2 (stereo partly drawn) [M, [4S-(4alpha,12aalpha)]-4-(Dimethylamino)-1,4,4a,5,5a,6,11,12a-octahydro-3,10,12,12a-tetrahydroxy-9-[[[(2-methylpropyl)amino]acetyl]amino]-1,11-dioxo-2-naphthacenecarboxamide dihydrochloride]
MIC (S. aureus NEMC 8769; [11]): 8 µg/mL | MIC ([1]; Stenotrophomonas maltophilia, NEMC87210, 18 h, X. maltophilia NEMC 87210, read-out: MIC): 2 µg/mL | MIC (S. aureus IVES 2943; Staphylococcus aureus, IVES2943, 18 h, S. aureus IVES 2943, read-out: MIC): 4 µg/mL | MIC ([2]; Escherichia coli, 18 h): 1 µg/mL | MIC ([3]; Streptococcus pyogenes, AVHAH883, 18 h, S. hemolyticus AVHAH 88-3, read-out: MIC): 2 µg/mL | MIC (S. aureus UBMS 88-4; Staphylococcus aureus, UBMS884, 18 h): 0.5 µg/mL | MIC (E. coli J3272 Tet C; [12]): 1 µg/mL | MIC (S. aureus ROSE (MP); [13]): 8 µg/mL | MIC (E. coli UBMS 90-5; [14]): 1 µg/mL | MIC (S. aureus SMITH (MP); Staphylococcus aureus, 18 h): 0.5 µg/mL | MIC [4, 15]: 2 µg/mL | MIC (E. coli ATCC 25922; Escherichia coli, ATCC25922, 18 h): 0.5 µg/mL | MIC [5]: 0.5 µg/mL | MIC ([6]; Escherichia coli, 18 h): 1 µg/mL | MIC [7]: 0.5 µg/mL | MIC [8, 16]: 32 µg/mL | MIC (Enterococcus 12201; Enterococcus, 12201, 18 h): 0.5 µg/mL | MIC (E. coli UBMS 89-1 Tet M; Escherichia coli, UBMS891TETM, 18 h): 0.5 µg/mL | MIC (E. coli PRP1 Tet A; [17]): 1 µg/mL | MIC (E. coli UBMS 88-1 Tet B; [18]): 1 µg/mL | MIC (E. coli UBMS 90-4 Tet M): 0.5 µg/mL | MIC (E. coli #311 (MP)): 1 µg/mL | MIC (S. aureus IVES 1983; [19]): 2 µg/mL | MIC (E. coli J2175; [20]): 1 µg/mL | MIC (S. marcescens FPOR 8733; [21]): 8 µg/mL | MIC [9]: 0.5 µg/mL

CN(C)CC(=O)Nc1ccc2c(c1O)C(=O)C1=C(O)[C@]3(O)C(=O)C(C(N)=O)=C(O)[C@@H](N(C)C)C3CC1C2 (stereo partly drawn) [DD, [4S-(4alpha,12aalpha)]-4-(Dimethylamino)-9-[[(dimethylamino)acetyl]amino]-1,4,4a,5,5a,6,11,12a-octahydro-3,10,12,12a-tetrahydroxy-1,11-dioxo-2-naphthacenecarboxamide monohydrochloride]
MIC (S. aureus NEMC 8769; monohydrochloride): 0.03 µg/mL | MIC ([1]; X. maltophilia NEMC 87210, monohydrochloride): 2 µg/mL | MIC (S. aureus IVES 2943; S. aureus IVES 2943, monohydrochloride): 1 µg/mL | MIC ([3]; S. hemolyticus AVHAH 88-3, monohydrochloride): 0.25 µg/mL | MIC (E. coli J3272 Tet C; monohydrochloride): 1 µg/mL | MIC (S. aureus ROSE (MP); monohydrochloride): 4 µg/mL | MIC (E. coli UBMS 90-5): 0.25 µg/mL | MIC ([4]; monohydrochloride): 1 µg/mL | MIC (E. coli ATCC 25922; monohydrochloride): 0.25 µg/mL | MIC (E. coli J3272 Tet D): 0.25 µg/mL | MIC ([8]; monohydrochloride): 8 µg/mL | MIC (E. coli UBMS 89-1 Tet M; monohydrochloride): 0.5 µg/mL | MIC (S. aureus UBMS 90-3; monohydrochloride): 0.06 µg/mL | MIC (E. coli PRP1 Tet A; monohydrochloride): 1 µg/mL | MIC (E. faecalis ATCC 29212; monohydrochloride): 0.06 µg/mL | MIC (E. coli #311 (MP)): 0.25 µg/mL | ED50 ([10]; Intraveneous, monohydrochloride, 10080 min): 0.67 mg/kg | ED50 ([10]; Oral, monohydrochloride, 10080 min): 12 mg/kg | in vivo activity (in words) [10]: very good in vivo activity | MIC (S. aureus IVES 1983; S. aureus IVES 1983, monohydrochloride): 1 µg/mL | MIC (S. marcescens FPOR 8733): 4 µg/mL

CN(C)[C@@H]1C(O)=C(C(N)=O)C(=O)[C@@]2(O)C(O)=C3C(=O)c4c(ccc(NC(=O)CN5CCCC5)c4O)CC3CC12 (stereo partly drawn) [D, [7S-(7alpha,10aalpha)]-N-[9-(Aminocarbonyl)-7-(dimethylamino)-5,5a,6,6a,7-10,10a,12-octahydro-1,8,10a,11-tetrahydroxy-10,12-dioxo-2-naphthacenyl]-1-pyrrolidineacetamide dihydrochloride]
MIC (S. aureus NEMC 8769; Staphylococcus aureus, NEMC8769, 18 h): 0.06 µg/mL | MIC ([1]; Stenotrophomonas maltophilia, NEMC87210, 18 h): 1 µg/mL | MIC (S. aureus IVES 2943; Staphylococcus aureus, IVES2943, 18 h): 1 µg/mL | MIC ([2]; Escherichia coli, 18 h): 0.25 µg/mL | MIC ([3]; Streptococcus pyogenes, AVHAH883, 18 h): 0.25 µg/mL | MIC (E. coli J3272 Tet C; [12]): 0.25 µg/mL | MIC (S. aureus ROSE (MP); [13]): 2 µg/mL | MIC (E. coli UBMS 90-5; [14]): 0.25 µg/mL | MIC [4, 15]: 0.5 µg/mL | MIC ([6]; Escherichia coli, 18 h): 0.25 µg/mL | MIC [7]: 0.25 µg/mL | MIC [8, 16]: 16 µg/mL | MIC (E. coli PRP1 Tet A; [17]): 0.25 µg/mL | MIC (E. coli UBMS 88-1 Tet B; [18]): 0.25 µg/mL | MIC (E. coli UBMS 90-4 Tet M): 0.25 µg/mL | MIC (E. coli #311 (MP)): 0.25 µg/mL | ED50 ([10]; Staphylococcus aureus, iv, 168 h, Intraveneous, read-out: ED50): 1 to 2 mg/kg | ED50 ([10]; Staphylococcus aureus, po, 168 h, Oral, read-out: ED50): > 16 mg/kg | in vivo activity (in words) [10]: very good in vivo activity | MIC (S. aureus IVES 1983; [19]): 1 µg/mL | MIC (E. coli J2175; [20]): 0.25 µg/mL | MIC (S. marcescens FPOR 8733; [21]): 2 µg/mL | MIC [9]: 0.25 µg/mL

CN(C)CC(=O)Nc1ccc2c(c1O)C(=O)C1=C(O)[C@]3(O)C(=O)C(C(N)=O)=C(O)[C@@H](N(C)C)C3CC1C2 (stereo partly drawn) [BB, [4S-(4alpha,12aalpha)]-4-(Dimethylamino)-9-[[(dimethylamino)acetyl]amino]-1,4,4a,5,5a,6,11,12a-octahydro-3,10,12,12a-tetrahydroxy-1,11-dioxo-2-naphthacenecarboxamide]
MIC (S. aureus NEMC 8769; [11]): < 0.015 µg/mL | MIC ([1]; X. maltophilia NEMC 87210): 1 µg/mL (≈ 1.94 µM) | MIC (S. aureus IVES 2943; S. aureus IVES 2943): 0.5 µg/mL (≈ 0.972 µM) | MIC (E. coli BAJ9003 IMP MUT): no growth | MIC ([2]; E. coli UBMS 89-2 Tet sens.): 0.25 µg/mL (≈ 0.486 µM) | MIC (S. aureus UBMS 88-4; S. aureus UBMS 88-4): 0.06 µg/mL (≈ 0.117 µM) | MIC (S. aureus ATCC 29213): 0.3 µg/mL (≈ 0.583 µM) | MIC (E. coli J3272 Tet C): 0.25 µg/mL (≈ 0.486 µM) | MIC (S. aureus ROSE (MP); Staphylococcus aureus, 18 h): 2 µg/mL (≈ 3.89 µM) | MIC (S. aureus SMITH (MP); S. aureus SMITH (MP)): 0.06 µg/mL (≈ 0.117 µM) | MIC [4]: 0.5 µg/mL (≈ 0.972 µM) | MIC ([6]; E. coli MC 4100 TNIOC Tet B): 0.25 µg/mL (≈ 0.486 µM) | MIC [8]: 8 µg/mL (≈ 15.5 µM) | MIC (Enterococcus 12201; Enterococcus 12201): 0.06 µg/mL (≈ 0.117 µM) | MIC (S. aureus UBMS 90-3): 0.06 µg/mL (≈ 0.117 µM) | MIC (E. coli PRP1 Tet A): 0.5 µg/mL (≈ 0.972 µM) | MIC (E. coli UBMS 88-1 Tet B; E. coli UBMS 88-1 Tet B): 0.25 µg/mL (≈ 0.486 µM) | MIC (E. faecalis ATCC 29212): 0.06 µg/mL (≈ 0.117 µM) | ED50 ([10]; Intraveneous, 10080 min): 0.5 to 1 mg/kg | ED50 ([10]; Oral, 10080 min): 8 to 16 mg/kg | in vivo activity (in words) [10]: very good in vivo activity | MIC (S. aureus IVES 1983; Staphylococcus aureus, IVES1983, 18 h, S. aureus IVES 1983, read-out: MIC): 0.5 µg/mL (≈ 0.972 µM) | MIC (E. coli J2175): 0.25 µg/mL (≈ 0.486 µM) | MIC (S. marcescens FPOR 8733; Serratia marcescens, FPOR8733, 18 h): 2 µg/mL (≈ 3.89 µM)
